# Article PMC6470603, “Design and Synthesis of Matrine Derivatives as Novel Anti-Pulmonary Fibrotic Agents via Repression of the TGFβ/Smad Pathway” (Molecules, 2019)
# How the values were obtained:
# MRC-5 fibroblasts = assay: Scratch (wound healing) assay, TGF-β1-induced fibroblast migration; assay type: cell-based, human; conditions: 10 μM, 10 ng/mL TGF-β1, 24 h (TGF-β1 alone 85.0%)
# Procedure: Fibroblast migration is the key event in pulmonary fibrogenesis. […] Inhibition of lung fibroblasts migration is a promising potential therapeutic target for IPF. We performed wound healing assay to investigate the inhibitory effect of 3f and matrine against fibroblast migration (Figure 7).
# MRC-5 cells were seeded on 6-well plates and allowed to reach confluence for 48 h. The cell monolayer was gently scratched with a 1 mL pipette tip across the center of the well. After scratching, the cells were washed twice with medium to remove detached cells. The cells were then treated with or without 10 ng/mL TGF-β1 in the presence of vehicle or 10 μM 3f for 24 h. The gap area in wound region was quantitatively evaluated using ImageJ [30] and MRI wound healing tool plugin [31].
# [1] = Cytotoxicity assay (CCK-8); conditions: human, MRC-5 cells (human fetal lung fibroblasts)
# Procedure: (§4) Cytotoxicity of all compounds were also determined against MRC-5 cells, so as to calculate selectivity index (SI, CC50/IC50).
# (§5) MRC-5 cells in passage between 21 to 26 were used for experiments.
# (§6) MRC-5 cells were incubated with different concentrations of compounds for 48 h, and then 10 μL of CCK-8 solution were added to each well. The cells were incubated at 37 °C for another 3 h before determining the OD values at 492 nm. DMSO at 0.1% v/v final concentration was used to solubilize the test compounds, except for compound 3b, 3c, and 3e, where 1% v/v DMSO was used to ensure complete solubilization.
# S100A4 in MRC-5 cells = assay: Immunofluorescence assay, S100A4 expression (fibroblast-to-myofibroblast transition); assay type: cell-based, human; conditions: 10 μM, 48 h, 10 ng/mL TGF-β1, mean fluorescence intensity
# From the text: (§1) Myofibroblasts, a further differentiated subset of fibroblasts, are primary effector cells for collagen synthesis in fibrotic disorders. Inhibition of fibroblast differentiation is an important therapeutic target for IPF treatment. To examine whether 3f could inhibit TGF-β1-induced fibroblast-to-myofibroblast transition, we investigated the expression level of alpha-smooth muscle actin (α-SMA) and S100A4, the key markers which distinguish myofibroblasts from their precursor fibroblasts. We observed dramatic upregulation of myofibroblast markers in response to TGF-β1 stimulation (774.9% and 537.7% for α-SMA and S100A4, respectively), characterizing a strong expression of myofibroblast phenotype.
# (§2) MRC-5 cells were seeded on 0.2% gelatin-coated glass coverslips and treated with or without 10 ng/mL TGF-β1 in the presence of vehicle or 10 μM 3f for 48 h. The cells were washed with PBS and fixed in freshly prepared 4% paraformaldehyde (PFA) at room temperature for 10 min. The cells were then permeabilized with 0.25% Triton X-100 for 10 min before 30 min of blocking by PBS solution supplemented with 1% BSA and 22.5 mg/mL glycine (the permeabilization was omitted for S100A4 and TGFβRI staining). […] The mean fluorescence intensity (MFI) of each photo was calculated by ImageJ. […]
# [2] = tested on: fibronectin in MRC-5 cells; assay: Immunofluorescence assay, fibronectin expression; assay type: cell-based, human; conditions: 10 μM, 48 h, 10 ng/mL TGF-β1, mean fluorescence intensity
# Procedure: Next, we evaluated the inhibitory effect of 3f against fibronectin expression. Fibronectin is another major constituent of ECM and plays a critical role in fibrogenesis by promoting the migration, proliferation, and adhesion of fibroblasts.
# as §2, with “staining). The cells were incubated with primary antibody overnight at 4 °C and labeled with AlexaFluor 488-conjugated or Dylight 488-conjugated secondary antibody.” for “staining).”
# [3] = tested on: TGF-β receptor type I (TGFβRI) in MRC-5 cells; assay: Immunofluorescence assay, TGFβRI expression; assay type: cell-based, human; conditions: 10 μM, 48 h, 10 ng/mL TGF-β1, mean fluorescence intensity
# From the text: Another emerging effect of Smad which acts as the amplifier of TGF-β signaling also contribute to fibrotic diseases. The nuclear translocation of Smad3 leads to the activation of the miR-433 promotor region. miR-433 promotes the decrease of antizyme inhibitor I (Azin1) and eventually results in depletion of polyamine, which causes the upregulation of expression level of TGF-β receptor type I (TGFβRI) and TGF-β1. This series of signaling creates a positive-feedback loop which amplify the TGFβ signaling.
# as §2, with “staining). The cells were incubated with primary antibody overnight at 4 °C and labeled with AlexaFluor 488-conjugated or Dylight 488-conjugated secondary antibody.” for “staining).”
# [4] = tested on: Collagen type III alpha-1 chain (COL3A1) in MRC-5 cells; assay: Immunofluorescence assay, COL3A1 expression; assay type: cell-based, human; conditions: 10 μM, 48 h, 10 ng/mL TGF-β1, mean fluorescence intensity
# Procedure: (§3) Due to the significance of collagen in IPF pathogenesis, we first evaluated the inhibitory effect of key compound 3f against collagen accumulation. Immunofluorescence staining was employed to investigate collagen protein expression.
# as §2, with “staining). The cells were incubated with primary antibody overnight at 4 °C and labeled with AlexaFluor 488-conjugated or Dylight 488-conjugated secondary antibody.” for “staining).”
# Smad2/3 in MRC-5 cells = assay: Immunofluorescence assay, cellular localization of Smad2/3; assay type: cell-based, human; conditions: 10 μM, 48 h, 10 ng/mL TGF-β1
# From the text: Small mothers against decapentaplegic homologs (Smad) are key mediators and regulators of TGFβ signaling. The binding of TGF-β1 to TGFβ receptors leads to the phosphorylation of Smad2/3 complex, which then translocate into nucleus to enhance gene transcription by cooperating with DNA transcription factors. Inhibition of the nuclear translocation of Smad2/3 could attenuate the transcription of profibrotic genes such as collagens and α-SMA. Therefore, we investigated the cellular localization of Smad2/3 by immunofluorescence assay. As depicted in Figure 6A, Smad2/3 predominately localize in cytoplasm under normal conditions, but translocate into nucleus upon TGF-β1 stimulation.
# as §2
# [5] = tested on: alpha-smooth muscle actin (α-SMA) in MRC-5 cells; assay: Immunofluorescence assay, α-SMA expression (fibroblast-to-myofibroblast transition); assay type: cell-based, human; conditions: 10 μM, 48 h, 10 ng/mL TGF-β1, mean fluorescence intensity
# From the text: as §1, §2
# [6] = tested on: Collagen type I alpha-1 chain (COL1A1) in MRC-5 cells; assay: Immunofluorescence assay, COL1A1 expression; assay type: cell-based, human; conditions: 10 μM, 48 h, 10 ng/mL TGF-β1, mean fluorescence intensity
# Procedure: as §3
# as §2, with “staining). The cells were incubated with primary antibody overnight at 4 °C and labeled with AlexaFluor 488-conjugated or Dylight 488-conjugated secondary antibody.” for “staining).”
# [7] = tested on: TGF-β1 induced total collagen accumulation in MRC-5 cells; assay: Sircol collagen assay: inhibition of TGF-β1-induced total collagen accumulation; assay type: cell-based, human; conditions: for IC50: Homo sapiens, MRC5, 10 ng/mL TGF-β1, 48 h, Sircol collagen assay; for SI, selectivity index (SI = CC50/IC50): MRC-5 cells
# Procedure: Higher SI values indicates better safety profile.
# MRC-5 cells in 1 × 10^5 cells/mL density were seeded in TC treated 96-well plates and allowed to reach confluence for 48 h. The cells were then starved using MEM-NEAA containing 0.2% BSA for 24 h. After starvation, the medium was changed to MEM-NEAA supplemented with 0.2% BSA, 100 μM L-Proline, 100 μM Ascorbic acid, with or without 10 ng/mL TGF-β1 (Peprotech) in the presence of vehicle or different concentrations of compounds. After 48 h incubation, the MRC-5 cells were washed with phosphate buffered saline (PBS) and fixed in −20 °C precooled methanol for 10 min. The cells were than washed with PBS before incubation in 0.1% PSR staining solution (0.1% Sirus red in saturated water solution of picric acid) for 1 h. The staining solution was then removed and the cells were washed with 0.1% acetic acid for three times. 200 μL of 0.1 mol/L sodium hydroxide solution were added to each well and the plates were placed on a rocking platform for 1 h. The optical density (OD) values at 550 nm were determined with an Infinite 2000 spectrophotometer.
# in vitro = conditions: human
# Procedure: as §4, §5, §6
compound,measurement,setting,value
"O=C1CC(n2ccc3cc(Cl)ccc32)CC2C3CCCN4CCCC(CN12)C34 (centres unmarked) [3f, 13-(5-chloro-1H-indol-1-yl)-matrine]",closure of wound area over 24 h period,MRC-5 fibroblasts,37.7%
same,CC50 at 48 h,[1],26.7 ± 0.7 µM
same,downregulation in expression level of S100A4 compared to TGF-β1 stimulation group,S100A4 in MRC-5 cells,17.7%
same,reduction of expression level of fibronectin comparing to TGF-β1 stimulation group,[2],40.0%
same,reduction of TGF-β1-induced upregulation of TGFβRI expression level,[3],46.7%
same,decrease in expression level of COL3A1 relative to TGF-β1 stimulation group,[4],31.1%
same,effect on cytoplasm-to-nuclear translocation of Smad2/3,Smad2/3 in MRC-5 cells,significantly inhibit the cytoplasm-to-nuclear translocation of Smad2/3
same,downregulation in expression level of α-SMA compared to TGF-β1 stimulation group,[5],45.8%
same,decrease in expression level of COL1A1 relative to TGF-β1 stimulation group,[6],46.2%
same,IC50,[7],3.3 ± 0.3 µM
same,"SI, selectivity index (SI = CC50/IC50)",[7],8.0
"O=C1C=CC[C@@H]2[C@H]3CCCN4CCC[C@@H](CN12)[C@@H]34 [Sophocarpine, reference compound]",CC50 at 48 h,in vitro,3160 ± 355 µM
same,IC50,[7],1190 ± 135 µM
same,"SI, selectivity index (SI = CC50/IC50)",[7],2.7
